Measured values taken from paper PMC11876671, “Investigating blood–brain barrier penetration and neurotoxicity of natural products for central nervous system drug development” (Scientific Reports, 2025).
Structures can show the parent of a compound that is named as a salt. Where two headings read alike, the source gives them in different places.

How the values were obtained:
in vitro = settings: PAMPA, PAMPA-BBB Pe
[1] = tested on: GFP-labeled iPSC-derived human cortical glutamatergic neurons; assay: cells; format: cell-based; settings: for AC50: Homo sapiens, Neuron, Table S1, total neurite length, 48 hr, head prints no unit, µM per Table 1 and Fig. 5, read-out: TNL AC50 (48 hr)
[2] = Table S1, 60 min, room temperature, 0.05 mM
[3] = Table S2: compounds exhibiting moderate to high PAMPA-BBB permeability
[4] = Table S3: compounds exhibiting low PAMPA-BBB permeability

SMILES | PAMPA-BBB Pe [3] | PAMPA-BBB Pe(10^-6 cm/sec) [4] | further results
CN1CCC2=C[C@@H](O)[C@@H]3OC(=O)c4cc5c(cc4[C@H]3C21)OCO5 (stereo partly drawn) [NCGC00160234-01] | – | – | Papp (in vitro; [2]): 22.3 ×10⁻⁶ cm/s; Papp (in vitro; [3]): 22 ×10⁻⁶ cm/s; AC50 [1]: 2.22 µM
C=C(C)[C@H]1Cc2c(ccc3c2O[C@@H]2COc4cc(OC)c(OC)cc4[C@@H]2C3=O)O1 [rotenone, reference compound] | – | – | inhibition of cortical neurite outgrowth (total neurite length) ([1]; 24 and 48 h treatment, in words): inhibited cortical neurite outgrowth in a concentration-dependent manner
CC1(C)OC1COc1c2occc2cc2ccc(=O)oc12 (stereo not drawn) [NCGC00160222-01] | – | – | Papp (in vitro; [2]): 210 ×10⁻⁶ cm/s; AC50 [1]: 24.5 µM
CO[C@@H]1[C@@H](O[C@@H]2O[C@H](C)[C@@H](O[C@H]3C[C@@](C)(O)[C@@H](OC(=O)CC(C)C)[C@H](C)O3)[C@H](N(C)C)[C@H]2O)[C@@H](CC=O)C[C@@H](C)C(=O)/C=C/[C@@H]2O[C@H]2C[C@@H](C)OC(=O)C[C@H]1OC(C)=O [Magnamycin A/Carbomycin A] | – | – | Papp (in vitro; [2]): 31.9 ×10⁻⁶ cm/s; Papp (in vitro; [3]): 32 ×10⁻⁶ cm/s; AC50 [1]: 27.1 µM
Cn1cccc1-c1cccnc1 [beta-NICOTYRINE] | – | – | Papp (in vitro; [2]): 102 ×10⁻⁶ cm/s; AC50 [1]: 8.46 µM
COC(=O)[C@@H]1[C@@H]2C[C@H]3c4[nH]c5ccccc5c4CCN3C[C@@H]2CC[C@@H]1O [Beta-yohimbine] | – | – | Papp (in vitro): 41.8 ×10⁻⁶ cm/s; AC50 [1]: 11.8 µM
O=c1c2ccccc2oc2ccccc12 [Xanthenone] | – | – | Papp (in vitro; [2]): 173 ×10⁻⁶ cm/s; AC50 [1]: 18.6 µM
O=c1c(-c2ccc(O)cc2)coc2cc(O)cc(O)c12 [Genistein] | – | – | Papp (in vitro; [2]): 35.4 ×10⁻⁶ cm/s; Papp (in vitro; [3]): 35 ×10⁻⁶ cm/s; AC50 [1]: 33.4 µM
CCOc1ccc(O)cc1 [Hydroquinone monoethyl ether] | – | – | Papp (in vitro; [2]): 35 ×10⁻⁶ cm/s; AC50 [1]: 13.6 µM
C/C(=C\COc1c2ccoc2cc2oc(=O)ccc12)CCC(O)C(C)(C)O (stereo not drawn) [6,7-dihydroxy Bergamottin] | – | – | Papp (in vitro; [2]): 54.7 ×10⁻⁶ cm/s; AC50 [1]: 6.03 µM
CC(=O)[C@H]1CC[C@H]2[C@@H]3CCC4=CC(=O)CC[C@]4(C)[C@H]3CC[C@]12C [progesterone, reference compound] | – | – | PAMPA-BBB permeability category (category in words): high permeability
NC(=O)Nc1ccc(Cl)c(Cl)c1 [NCGC00255466-01] | 148 10^-6 cm/sec | – | –
COc1cc(OC)c2c(c1)OC(c1ccccc1)CC2=O (stereo not drawn) [NCGC00142553-05] | 176 10^-6 cm/sec | – | –
COc1cc2c(c(OC)c1OC)-c1c(cc(OC)c(OC)c1OC)C[C@H](C)[C@H](C)C2 [Deoxyschizandrin] | – | – | Papp (in vitro; [2]): 171 ×10⁻⁶ cm/s; AC50 [1]: 15.9 µM
COC(=O)C[C@H]1C2(C)C[C@]34O[C@@]5(C)O[C@@]6([C@H](OC(C)=O)C(OC(C)=O)[C@]7(C)C(/C(=C(/O)C(C)C)C(=O)O[C@H]7c7ccoc7)[C@@]6(O5)[C@H](OC(C)=O)[C@@]3(O)C2OC(=O)C(C)C)[C@]14C (stereo partly drawn) [NCGC00264007-02] | 28 10^-6 cm/sec | – | –
COc1cc2oc(=O)ccc2cc1O [NCGC00163577-02] | – | 2.2 10^-6 cm/sec | –
COc1ccc(C2CC(=O)c3ccc(OC)cc3O2)cc1 (stereo not drawn) [NCGC00095734-01] | – | 5.8 10^-6 cm/sec | –
Cc1cc(O)c(C)c(O)c1C(=O)O [NCGC00095485-03] | – | <1 10^-6 cm/sec | –
CN(N=O)c1cc(O)ccc1O [NCGC00261088-01] | – | <1 10^-6 cm/sec | –
CC(=O)NCCc1c[nH]c2ccccc12 [NCGC00260786-01] | – | 5.7 10^-6 cm/sec | –
CO[C@H]1C=C2CCN(C)[C@H]2C2c3cc4c(cc3C(=O)O[C@@H]21)OCO4 (stereo partly drawn) [NCGC00179416-02] | 19 10^-6 cm/sec | – | –

SMILES | PAMPA-BBB Pe [3] | PAMPA-BBB Pe(10^-6 cm/sec) [4] | further results
C=CC(O)C1OC1C=CC1OC1C(C)O (stereo not drawn) [NCGC00263647-01] | – | <1 10^-6 cm/sec | –
CC1(C)C(=O)C=C[C@@]2(C)C1C[C@@H](O)[C@]1(C)C2CC[C@@]2(C)[C@H](c3ccoc3)OC(=O)[C@H]3O[C@]321 (stereo partly drawn) [NCGC00179150-03] | 108 10^-6 cm/sec | – | –
O=C(O)c1cc2ccccc2[nH]1 [NCGC00094957-03] | – | <1 10^-6 cm/sec | –
COc1cc(=O)n(C)c2c(OCC3OC(C)(C)OC3(C)C)cccc12 (stereo not drawn) [NCGC00160200-01] | 106 10^-6 cm/sec | – | –
COC(=O)C(O)C(O)(CCC(C)C)C(=O)OC1C(OC)=CC23CCCN2CCc2cc4c(cc2C13)OCO4 (stereo not drawn) [NCGC00161614-01] | – | <1 10^-6 cm/sec | –
COC(=O)[C@H](Cc1ccccc1)NC(=O)/C(=C1\OC(=O)C(c2ccccc2)=C1O)c1ccccc1 [NCGC00263991-01] | – | <1 10^-6 cm/sec | –
COc1ccc([C@@H](C)C(=O)c2ccc(O)cc2O)cc1 [NCGC00160149-03] | 345 10^-6 cm/sec | – | –
CC(=O)O[C@H]1C[C@@H](OC(C)=O)C(C)(C)C2C[C@@H](OC(C)=O)[C@]3(C)C(CC[C@@]4(C)[C@H](c5ccoc5)OC(=O)[C@H]5O[C@]543)[C@]21C (stereo partly drawn) [NCGC00179019-03] | – | 2.7 10^-6 cm/sec | –
COc1cc(-c2oc3cc(O)cc(O)c3c(=O)c2O[C@@H]2O[C@H](CO)[C@@H](O)[C@H](O)[C@H]2O)cc(OC)c1O [NCGC00163630-01] | – | <1 10^-6 cm/sec | –
COC(=O)C1=CC[C@@]23CC[C@@H]([C@@](C)(/C=C/C=C(\C)C(=O)O)OC2=O)[C@@]3(OC(C)=O)CC1 [NCGC00344122-04] | – | <1 10^-6 cm/sec | –
O=C(/C=C/c1ccc(O)c(O)c1)OCCc1ccccc1 [PHENETHYL CAFFEATE] | >1000 10^-6 cm/sec | – | –
COc1cc2c(cc1O)[C@@H]1Cc3ccc(OC)c(O)c3CN1CC2 [NCGC00179539-03] | 78 10^-6 cm/sec | – | –
COc1cc(C(O)CO)ccc1OS(=O)(=O)[O-].[K+] (stereo not drawn) [NCGC00261311-01] | – | <1 10^-6 cm/sec | –
CCOC(=O)c1c(C)cc(O)c(C=O)c1O [NCGC00095517-01] | 110 10^-6 cm/sec | – | –
O=C(CO)c1c[nH]c2ccccc12 [NCGC00182562-01] | – | 6.7 10^-6 cm/sec | –
COc1cc2c(cc1OC)-c1cc3cc(OC)c(OC)cc3c(=O)n1CC2 [NCGC00160189-01] | 232 10^-6 cm/sec | – | –
COc1c2ccoc2nc2c(OC)c(OC[C@@H](O)C(C)(C)O)ccc12 [NCGC00179458-02] | 12 10^-6 cm/sec | – | –
COc1cc2c(cc1OC)C(=O)OC2 [NCGC00095581-04] | 12 10^-6 cm/sec | – | –
COC(=O)c1c(OC)cc2c(c1C)Oc1c(Cl)c(O)c(Cl)c(C)c1C(=O)O2 [NCGC00095466-04] | 27 10^-6 cm/sec | – | –
OC[C@H]1O[C@@H](n2cnc3cncnc32)[C@H](O)[C@@H]1O [NEBULARINE¦NEBULARINE] | – | <1 10^-6 cm/sec | –
CCCc1cc(=O)c2ccccc2n1C [NCGC00351153-01] | 137 10^-6 cm/sec | – | –

SMILES | PAMPA-BBB Pe [3] | PAMPA-BBB Pe(10^-6 cm/sec) [4] | further results
Cn1c2c(c(=O)c3ccccc31)C[C@@H](O)C(C)(C)O2 [NCGC00160238-01] | – | <1 10^-6 cm/sec | –
COc1cc(/C=C2/C(=O)Nc3ccccc32)cc(OC)c1O [NCGC00343740-01] | – | 4.8 10^-6 cm/sec | –
COc1ccc(-c2cc(=O)c3c(O)cc(OC)c(OC)c3o2)c(OC)c1 [NCGC00263973-02] | 201 10^-6 cm/sec | – | –
CC(=O)NCCc1ccc(O)c(-c2c(O)c(O)c3c(c2O)C(=O)c2c(cc(O)c(C(=O)O)c2C(=O)O)C3=O)c1 [NCGC00263986-01] | – | <1 10^-6 cm/sec | –
COc1cc2c(c3oc(=O)c4c(c13)CCOC4=O)C1C=COC1O2 (stereo not drawn) [AFLATOXIN G1] | – | – | PAMPA-BBB Pe(10^-6 cm/sec): <1 10^-6 cm/sec
COc1cc(/C=C/C(=O)c2ccc(O)cc2O)ccc1O [NCGC00163564-01] | 188 10^-6 cm/sec | – | –
O=C/C=C/c1ccc(O)cc1 [NCGC00095729-01] | – | 4.5 10^-6 cm/sec | –
C/C=C(\C)C(=O)O[C@H]1CC(C)=C2C(=O)C=C(C)C2[C@@H]2OC(=O)[C@@](C)(OC(=O)C=C(C)C)C21 (stereo partly drawn) [NCGC00160270-01] | – | 5.7 10^-6 cm/sec | –
Cc1cc(O)c2c(c1O)C(=O)C(O)=C(O)C2=O [NCGC00160271-01] | – | 4.8 10^-6 cm/sec | –
C[N+]12CC[C@@]34c5ccccc5N5C(=O)C[C@@H]6OCC=C(C1)[C@H](CC32)[C@@H]6C54 (stereo partly drawn) [NCGC00264058-02] | – | <1 10^-6 cm/sec | –
C/C=C/c1ccc(OC(C)[C@@H](O)c2ccc(O)c(OC)c2)c(OC)c1 (stereo partly drawn) [NCGC00160251-01] | 150 10^-6 cm/sec | – | –
C/C=C(/C)C(=O)O[C@H]1CC(C)=CC(=O)[C@@]2(C)CC[C@@](O)(C(C)C)[C@H]12 [NCGC00163582-01] | 125 10^-6 cm/sec | – | –
COc1ccc([C@@H]2[C@@H](O)[C@H](O)[C@@H](C)N2C)cc1OC [NCGC00160242-01] | – | 1.3 10^-6 cm/sec | –
COc1cc2c(cc1-c1coc3c4c(c(OC)cc3c1=O)OC(C)(C)C=C4)OCO2 [NCGC00178961-03] | 146 10^-6 cm/sec | – | –
COc1ccc2c(c1OC)C(=O)O[C@@H]2[C@H]1c2c(cc3c(c2OC)OCO3)CCN1C [NOSCAPINE HYDROCHLORIDE] | – | – | PAMPA-BBB Pe (PAMPA): 75 10^-6 cm/sec
COc1ccc2c(c1)O[C@@H]1COc3cc(OC)c(OC)cc3[C@@H]1C2=O [NCGC00178970-02] | 355 10^-6 cm/sec | – | –
CC(=O)Oc1ccc(/C=C/c2cc(OC(C)=O)cc(OC(C)=O)c2)cc1 [NCGC00095675-03] | 200 10^-6 cm/sec | – | –
O=C(OC[C@H]1O[C@H](OC(=O)c2cc(O)c(O)c(OC(=O)c3cc(O)c(O)c(O)c3)c2)[C@H](OC(=O)c2cc(O)c(O)c(OC(=O)c3cc(O)c(O)c(O)c3)c2)[C@@H](OC(=O)c2cc(O)c(O)c(OC(=O)c3cc(O)c(O)c(O)c3)c2)[C@@H]1OC(=O)c1cc(O)c(O)c(OC(=O)c2cc(O)c(O)c(O)c2)c1)c1cc(O)c(O)c(OC(=O)c2cc(O)c(O)c(O)c2)c1 [NCGC00263877-02] | – | <1 10^-6 cm/sec | –
C[C@]12O[C@H](C[C@@]1(O)C(=O)O)n1c3ccccc3c3c4c(c5c6ccccc6n2c5c31)CNC4=O [NCGC00163504-01] | – | <1 10^-6 cm/sec | –
N[C@H](C(=O)O)c1ccc(O)c(C(=O)O)c1 [NCGC00024539-02] | – | <1 10^-6 cm/sec | –
